Target: T1, LolCDE (Escherichia coli, UniProt P75957)
T1 construct: gene lolD; co-expressed in E. coli BL21(DE3); purified in DDM, reconstituted into MSP1D1/POPG nanodiscs; co-purifies with lipoprotein; with Lipoprotein-releasing system transmembrane protein LolC; Lipoprotein-releasing system transmembrane protein LolE
T1 sequence (P75957 1-233): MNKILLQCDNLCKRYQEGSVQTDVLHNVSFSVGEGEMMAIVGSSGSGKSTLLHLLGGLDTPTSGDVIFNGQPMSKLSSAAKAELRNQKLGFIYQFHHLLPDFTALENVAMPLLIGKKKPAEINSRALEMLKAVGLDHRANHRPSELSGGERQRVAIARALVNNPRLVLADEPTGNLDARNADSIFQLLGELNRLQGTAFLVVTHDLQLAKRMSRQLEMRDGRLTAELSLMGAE
T1 sequence (P0ADC3 1-399 partner): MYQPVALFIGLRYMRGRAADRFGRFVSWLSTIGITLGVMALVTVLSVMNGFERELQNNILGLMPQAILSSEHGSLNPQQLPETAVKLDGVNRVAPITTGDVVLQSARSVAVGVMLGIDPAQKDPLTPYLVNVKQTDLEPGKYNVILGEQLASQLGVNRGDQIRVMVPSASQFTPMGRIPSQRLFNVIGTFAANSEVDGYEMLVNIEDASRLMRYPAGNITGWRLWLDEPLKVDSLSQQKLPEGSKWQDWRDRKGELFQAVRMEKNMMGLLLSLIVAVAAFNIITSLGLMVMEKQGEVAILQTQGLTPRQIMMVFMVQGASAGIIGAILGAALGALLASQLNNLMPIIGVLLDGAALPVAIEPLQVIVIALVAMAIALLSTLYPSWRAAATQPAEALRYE
T1 sequence (P75958 2-414 partner): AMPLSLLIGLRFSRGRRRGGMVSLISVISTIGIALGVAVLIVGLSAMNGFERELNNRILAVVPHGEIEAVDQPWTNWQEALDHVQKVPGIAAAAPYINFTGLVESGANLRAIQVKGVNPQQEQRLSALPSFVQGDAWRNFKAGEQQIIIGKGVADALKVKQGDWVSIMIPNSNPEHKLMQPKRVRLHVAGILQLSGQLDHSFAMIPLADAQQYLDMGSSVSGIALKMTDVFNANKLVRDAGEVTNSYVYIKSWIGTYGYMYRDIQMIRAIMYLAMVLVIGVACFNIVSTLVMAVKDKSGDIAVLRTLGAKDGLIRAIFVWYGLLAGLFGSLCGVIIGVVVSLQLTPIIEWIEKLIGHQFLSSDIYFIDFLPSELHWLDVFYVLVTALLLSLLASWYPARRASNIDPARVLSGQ
Test: colorimetric phosphate-release ATPase assay
Assay type: biochemical
Conditions: LolCDE in nanodiscs; 4 mM ATP, 4 mM MgCl2, pH 8, 37 °C; traps ADP-vanadate in the ATP site

[O]=[V]([OH])([OH])[OH] [orthovanadate]
% inhibition at 0.1 mM: ~ 90%
